According to US7276337B2, “Compositions and methods for visual ribonuclease detection assays” (Integrated DNA Technologies, Inc., priority 2000, dated 2007):

Experiments:
[1] = molecular target: T1, Ribonuclease A (Bos taurus, UniProt P61823); experiment: Visual detection ribonuclease assay, cleavage of Substrate ODN by RNase A; format: biochemical, mammalian; set-up: key to Sensitivity of Substrate ODN to Ribonuclease A, relative signal intensity: +++ = maximum intensity; ++ = moderate intensity; + = faint but above background; − = negative (identical to background); settings: visual inspection, UV excitation, Substrate 500 nM, 37° C. 60 minutes
T1 sequence (P61823 27-150): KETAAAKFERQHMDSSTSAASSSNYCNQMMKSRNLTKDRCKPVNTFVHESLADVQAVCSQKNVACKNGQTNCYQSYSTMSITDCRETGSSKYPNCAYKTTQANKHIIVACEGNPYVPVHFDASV
Description: Nuclease assays were conducted using the methods of the invention. SEQ ID NO:2 and SEQ ID NO:30 oligonucleotides were individually mixed in 1× Assay Buffer at a concentration of 500 nM (50 pmoles ODN in 100 ul volume) in thin-walled, UV transparent microtubes. RNase A (1 ul, diluted to 0;1 ug/ul) was added to the respective Assay Mixes. […] Assays were set up directly in microtubes as follows:
Assay Mixes were incubated at room temperature for 10 minutes. Assays were visually examined for fluorescence emission directly in the assay tubes without further manipulation. Tubes were suspended above an ultraviolet light source, visually inspected, and photographed using a digital camera. […] The “positive” and “control” reactions appeared markedly different and were easily distinguished. […] The “positive” and “control” reactions were not markedly different to visual inspection.
(§1) Nuclease assays were conducted using the method of the invention with both visual and fluorometric detection methods. Substrates were individually mixed in 1× Assay Buffer at a concentration of 50 nM (50 pmoles oligonucleotide in 1 ml volume) for fluorometric detection or at a concentration of 500 nM (50 pmoles of oligonucleotide in 100 ul volume) for visual detection. Test nucleases were added to respective Assay Mixes beginning at 1 ul stock reagent and proceeding with a 1:10 serial dilution until undetectable. Reaction mixes were incubated at 37° C. for 60 minutes. Fluorometric detection was performed as outlined in Example 2. Visual detection was performed as outlined in Example 1.
Table 6: Sensitivity of different Substrate ODNs to Ribonuclease A. A series of Substrate ODNs were synthesized and tested for sensitivity to RNase A degradation. Stock enzyme was serial diluted to achieve final concentrations of 1 ng/ml, 100 pg/ml, and 10 pg/ml as indicated. Reactions were examined for fluorescence emission by visual inspection using an ultraviolet (UV) light source for excitation. Results were scored as +++, ++, +, or − based on relative signal intensity.
(§2) It is commonly accepted that fluorometry provides for high sensitivity. To be useful, the visual method must also offer high sensitivity. Assays were conducted using the method of the invention with visual detection. Substrate SEQ ID NO:30 was mixed in 1× Assay Buffer at a concentration of 500 nM (50 pmoles ODN in 100 ul volume) in thin-walled, UV transparent tubes. […] Dilutions of stock RNase A, RNase 1, and RNase T1 were made in water. Undiluted and diluted nuclease (1 ul) was added to respective 100 ul Assay Mixes resulting in final dilution factors of 10^−2, 10^−3, 10^−4, 10^−5, 10^−6, and 10^−7. Assays were incubated at room temperature for 10 minutes and visually examined for fluorescence emission with UV excitation. […] The experiment took about 30 minutes to perform, including 15 minutes to set-up serial dilutions, 10 minutes incubation, and 5 minutes to visualize and photograph. Thus the method of the invention allows for a rapid, simple, and convenient visual assay for the presence of ribonuclease activity.

[2] = molecular target: T2, Ribonuclease T1 (Aspergillus oryzae, UniProt P00651); experiment: Visual detection ribonuclease assay, cleavage of Substrate ODN by RNase T1; format: biochemical; set-up: key to Sensitivity of Substrate ODN to Ribonuclease T1, relative signal intensity: +++ = maximum intensity; ++ = moderate intensity; + = faint but above background; − = negative (identical to background); settings: visual inspection, UV excitation, Substrate 500 nM, 37° C. 60 minutes
T2 sequence (P00651 27-130): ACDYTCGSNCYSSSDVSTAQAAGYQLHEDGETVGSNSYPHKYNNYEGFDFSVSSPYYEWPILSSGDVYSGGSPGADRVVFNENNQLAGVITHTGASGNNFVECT
Description: as §1
Table 7: Sensitivity of different Substrate ODNs to Ribonuclease T1. A series of Substrate ODNs were synthesized and tested for sensitivity to RNase T1 degradation. Stock enzyme was serial diluted to achieve final concentrations of 0.001 units/ml, 0.0001 units/ml, and 0.00001 units/ml as indicated. Reactions were examined for fluorescence emission by visual inspection using an ultraviolet (UV) light source for excitation. Results were scored as +++, ++, +, or − based on relative signal intensity.
as §2

Substance | Sensitivity of Substrate ODN to Ribonuclease A, relative signal intensity ([1]; RNase A 10 pg/ml) | Sensitivity of Substrate ODN to Ribonuclease A, relative signal intensity ([1]; RNase A 100 pg/ml) | Sensitivity of Substrate ODN to Ribonuclease A, relative signal intensity ([1]; RNase A 1 ng/ml) | Sensitivity of Substrate ODN to Ribonuclease T1, relative signal intensity ([2]; RNase T1 10^−3 units/ml) | Sensitivity of Substrate ODN to Ribonuclease T1, relative signal intensity ([2]; RNase T1 10^−4 units/ml) | Sensitivity of Substrate ODN to Ribonuclease T1, relative signal intensity ([2]; RNase T1 10^−5 units/ml)
5′ Fluorescein-AAaAA-Dabcyl 3′ (NAAAAAN; 5' fluorescein and 3' Dabcyl labels, nucleotide chemistry not given here) [SEQ ID NO:6] | − | − | − | − | − | −
5′ Fluorescein-AAcAA-Dabcyl 3′ (NAACAAN; 5' fluorescein and 3' Dabcyl labels, nucleotide chemistry not given here) [SEQ ID NO:5] | − | + | ++ | − | − | −
5′ Fluorescein-AAgAA-Dabcyl 3′ (NAAGAAN; 5' fluorescein and 3' Dabcyl labels, nucleotide chemistry not given here) [SEQ ID NO:4] | − | − | − | + | − | −
5′ Fluorescein-AacAA-Dabcyl 3′ (NAACAAN; 5' fluorescein and 3' Dabcyl labels, nucleotide chemistry not given here) [SEQ ID NO:8] | + | +++ | +++ | − | − | −
5′ Fluorescein-AaggucA-QSY-7 3′ (NAAGGUCAN; 5' fluorescein and 3' QSY-7 labels, nucleotide chemistry not given here) [SEQ ID NO:28] | + | ++ | +++ | +++ | +++ | ++
5′ Fluorescein-AagucA-Dabcyl 3′ (NAAGUCAN; 5' fluorescein and 3' Dabcyl labels, nucleotide chemistry not given here) [SEQ ID NO:24] | − | + | +++ | ++ | + | −
5′ Fluorescein-AagucA-QSY-7 3′ (NAAGUCAN; 5' fluorescein and 3' QSY-7 labels, nucleotide chemistry not given here) [SEQ ID NO:27] | + | ++ | +++ | +++ | ++ | +
5′ Fluorescein-AaugcA-QSY-7 3′ (NAAUGCAN; 5' fluorescein and 3' QSY-7 labels, nucleotide chemistry not given here) [SEQ ID NO:29] | + | +++ | +++ | +++ | +++ | ++
5′ Fluorescein-AcgaA-Dabcyl 3′ (NACGAAN; 5' fluorescein and 3' Dabcyl labels, nucleotide chemistry not given here) [SEQ ID NO:12] | − | − | ++ | +++ | ++ | −
5′ Fluorescein-AcgcA-Dabcyl 3′ (NACGCAN; 5' fluorescein and 3' Dabcyl labels, nucleotide chemistry not given here) [SEQ ID NO:13] | − | + | ++ | +++ | ++ | −
5′ Fluorescein-AcggA-Dabcyl 3′ (NACGGAN; 5' fluorescein and 3' Dabcyl labels, nucleotide chemistry not given here) [SEQ ID NO:14] | − | + | ++ | +++ | +++ | +
